Entries after “also recorded” stand apart in the source; their conditions may differ.
B1: F-spondin: secreted multi-domain protein that promotes neural cell adhesion and neurite extension; extracellular ligand of APP (protein, UniProt Q9HCB6 29-807, looked up)
Spondin-1: FSDETLDKVPKSEGYCSRILRAQGTRREGYTEFSLRVEGDPDFYKPGTSYRVTLSAAPPSYFRGFTLIALRENREGDKEEDHAGTFQIIDEEETQFMSNCPVAVTESTPRRRTRIQVFWIAPPAGTGCVILKASIVQKRIIYFQDEGSLTKKLCEQDSTFDGVTDKPILDCCACGTAKYRLTFYGNWSEKTHPKDYPRRANHWSAIIGGSHSKNYVLWEYGGYASEGVKQVAELGSPVKMEEEIRQQSDEVLTVIKAKAQWPAWQPLNVRAAPSAEFSVDRTRHLMSFLTMMGPSPDWNVGLSAEDLCTKECGWVQKVVQDLIPWDAGTDSGVTYESPNKPTIPQEKIRPLTSLDHPQSPFYDPEGGSITQVARVVIERIARKGEQCNIVPDNVDDIVADLAPEEKDEDDTPETCIYSNWSPWSACSSSTCDKGKRMRQRMLKAQLDLSVPCPDTQDFQPCMGPGCSDEDGSTCTMSEWITWSPCSISCGMGMRSRERYVKQFPEDGSVCTLPTEETEKCTVNEECSPSSCLMTEWGEWDECSATCGMGMKKRHRMIKMNPADGSMCKAETSQAEKCMMPECHTIPCLLSPWSEWSDCSVTCGKGMRTRQRMLKSLAELGDCNEDLEQVEKCMLPECPIDCELTEWSQWSECNKSCGKGHVIRTRMIQMEPQFGGAPCPETVQRKKCRIRKCLRNPSIQKLRWREARESRRSEQLKEESEGEQFPGCRMRPWTAWSECTKLCGGGIQERYMTVKKRFKSSQFTSCKDKKEIRACNVHPC

Experiments:
[1] = test system: Ga14-Tip60 dependent transcription mediated by APP (γ-secretase cleavage); test: Ga14-Tip60 transactivation assay, cells co-transfected with APP and Fe65; format: cell-based; conditions: HEK293 cells; DAPT 2 and 10 μM; inhibition was incomplete; FIG. 2C
Method: (§1) HEK293, HeLa and COS7 cells were transfected at 50 to 80% confluency in 6-well plates using Fugene6 reagent (Roche). For Ga14-Tip60 transactivation assays, HEK293 cells were co-transfected with five plasmids: (1) pG5E1B-luc=0.15 μg; (2) pCMV-LacZ=0.10 μg; (3) pM-Tip60=0.5 μg; (4) pCMV-FE65=0.5 μg; and (5) 0.05-1.0 μg pCMV-APP, 0.025-0.5 μg pCMV-Sport6-APLP1, or 0.05-1.0 μg pcDNA3.1-APLP2 as indicated. For the Fe65 titration experiments, HEK293 cells were cotransfected with five plasmids: (1) pG5E1B-luc=0.15 μg; (2) pCMV-LacZ=0.10 μg; (3) pM-Tip60=0.5 μg; (4) 0.5 μg of APP, 0.25 μg of APLP1, or 0.5 μg of APLP2; and (5) 0-2.0 μg pCMV-Fe65. Cells were harvested 2 days after transfection in 0.25 ml/well of reporter lysis buffer (Promega), and their Luciferase and β-galctosidase activities were determined with the Promega luciferase assay kit using a chemiluminescence reader from Berthold, and with the O-nitrophenyl-D-galacto-pyranoside assay for β-galactosidase, respectively. […]
(§2) For all three proteins (APP, APLP1, and APLP2), a bell-shaped dose-response curve of transactivation that depended on APP or an APLP was observed (FIG. 2A). […] Again, a dose-dependent, highly specific transactivation of Ga14-dependent transcription was detected. […]

[2] = test system: Ga14-Tip60 dependent transcription mediated by APLP1 (γ-secretase cleavage); test: Ga14-Tip60 transactivation assay, cells co-transfected with APLP1 and Fe65; format: cell-based; conditions: HEK293 cells; DAPT 2 and 10 μM; inhibition was incomplete; FIG. 2C
Method: as §1, §2

[3] = test system: Ga14-Tip60 dependent transcription mediated by APLP2 (γ-secretase cleavage); test: Ga14-Tip60 transactivation assay, cells co-transfected with APLP2 and Fe65; format: cell-based; conditions: HEK293 cells; DAPT 2 and 10 μM; inhibition was incomplete; FIG. 2C
Method: as §1, §2

[4] = test system: γ-secretase; test: Immunoblotting of C-terminal fragments (CTFs) in transfected HEK293 cells; format: cell-based
Method: HEK293, HeLa and COS7 cells were transfected at 50 to 80% confluency in 6-well plates using Fugene6 reagent (Roche). For Ga14-Tip60 transactivation assays, HEK293 cells were co-transfected with five plasmids: (1) pG5E1B-luc=0.15 μg; (2) pCMV-LacZ=0.10 μg; (3) pM-Tip60=0.5 μg; (4) pCMV-FE65=0.5 μg; and (5) 0.05-1.0 μg pCMV-APP, 0.025-0.5 μg pCMV-Sport6-APLP1, or 0.05-1.0 μg pcDNA3.1-APLP2 as indicated. For the Fe65 titration experiments, HEK293 cells were cotransfected with five plasmids: (1) pG5E1B-luc=0.15 μg; (2) pCMV-LacZ=0.10 μg; (3) pM-Tip60=0.5 μg; (4) 0.5 μg of APP, 0.25 μg of APLP1, or 0.5 μg of APLP2; and (5) 0-2.0 μg pCMV-Fe65. Cells were harvested 2 days after transfection in 0.25 ml/well of reporter lysis buffer (Promega), and their Luciferase and β-galctosidase activities were determined with the Promega luciferase assay kit using a chemiluminescence reader from Berthold, and with the O-nitrophenyl-D-galacto-pyranoside assay for β-galactosidase, respectively. The luciferase activity was standardized by the β-galactosidase activity to control for transfection efficiency and further normalized with the transactivation level with cells expressing no APPs or Fe65. Values shown are averages of transactivation assays performed in triplates. For immunoblotting analyses, HEK293 were transfected with 1 μg expression plasmids encoding APP, APLP1, APLP2, SynCam, or neurexin 1β, with or without 0.25 μg of BACE 1 expression vector. For APLP1 cleavage experiments, 1 μg of APLP1 or APP was cotransfected with BACE (0.25 μg and 0.5 μg) or ADAM 9 (0.5 μg and 1.0 μg) in HEK293, HeLa and COS cells. The cell extracts or media were harvested 24 hours after the transfection. Where indicated, γ-secretase inhibitor IX (DAPT; Calbiochem) was added (2 μM final concentration) 6 hrs before harvesting the cells.
SDS-PAGE and Immunoblotting experiments were performed using standard procedures well know to one of ordinary skill in the are with either regular SDS gels or tricine gels. Lanes were loaded with ˜20 μg of protein from whole cell extracts harvested in sample buffer, and analysed by immunoblotting after SDS-PAGE using antibody dilutions of 1:1,000-2,000 for primary and 1:10,000 HRP conjugated goat-anti-rabbit secondary antibodies (ICN). For immunoblotting analysis of secreted proteins, supernatants from transfected cells (30 μl with approximately 5 μg protein) were loaded per lane.
In the next set of experiments these antibodies were employed to probe for APP, APLP1, and APLP2 cleavage in cells that either expressed these proteins alone or in combination with BACE 1 (FIG. 4). As negative controls, two other neuronal cell-surface proteins, […] (Nrx1β) and SynCAM (36,37,39) were examined. For each of the five proteins studied, six conditions were investigated: HEK293 control cells (lane 1), transfected cells only expressing BACE 1 (lane 2), or cells transfected either with APP, APLP1, APLP2, neurexin 1β (Nrx1β), or SynCAM alone (lanes 3 and 5) or together with BACE 1 (lanes 4 and 6) were incubated in the absence (lanes 1-4) or presence of the γ-secretase inhibitor DAPT ([…]; lanes 5-6). Transfected proteins (indicated on the right) were examined by immunoblotting (20 μg cell protein/lane) using regular SDS-PAGE (top panel for each protein) to monitor the full-length proteins (FL), or by tricine gel electrophoresis to detect their CTFs (bottom panel for each protein). […]

[5] = test system: central APP domain (CAD) of APP, APLP1 and APLP2; test: F-spondin binding to the central APP domain (CAD); conditions: extracellular ligand; reelin domain or reelin and spondin domains sufficient
[6] = biological target: β-secretase cleavage sites of APP (Homo sapiens, UniProt P05067); test: Effect of F-spondin binding on β-secretase cleavage of APP
Chain of β-secretase cleavage sites of APP (P05067 18-770): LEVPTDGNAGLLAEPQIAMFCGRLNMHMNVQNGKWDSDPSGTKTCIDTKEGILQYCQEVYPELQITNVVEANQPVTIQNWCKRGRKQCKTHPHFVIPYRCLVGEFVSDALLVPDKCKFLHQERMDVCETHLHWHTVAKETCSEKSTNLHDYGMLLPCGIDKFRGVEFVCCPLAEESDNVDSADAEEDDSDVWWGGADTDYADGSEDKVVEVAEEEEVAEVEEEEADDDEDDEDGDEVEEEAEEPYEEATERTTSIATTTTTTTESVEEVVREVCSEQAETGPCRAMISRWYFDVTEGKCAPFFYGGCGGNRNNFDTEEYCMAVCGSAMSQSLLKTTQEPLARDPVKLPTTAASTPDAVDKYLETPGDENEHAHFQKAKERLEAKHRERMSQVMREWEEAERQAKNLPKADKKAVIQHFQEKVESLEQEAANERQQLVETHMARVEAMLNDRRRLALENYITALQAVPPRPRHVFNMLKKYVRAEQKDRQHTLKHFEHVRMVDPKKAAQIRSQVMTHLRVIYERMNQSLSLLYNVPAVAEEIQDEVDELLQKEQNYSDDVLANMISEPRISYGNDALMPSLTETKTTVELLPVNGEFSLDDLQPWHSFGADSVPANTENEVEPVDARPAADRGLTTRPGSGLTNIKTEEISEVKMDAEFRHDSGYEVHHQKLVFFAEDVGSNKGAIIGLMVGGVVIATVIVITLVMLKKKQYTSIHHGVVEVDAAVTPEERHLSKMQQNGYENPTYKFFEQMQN

| Molecule | inhibition of transactivation mediated by APP [1] | inhibition of transactivation mediated by APLP1 [2] | inhibition of transactivation mediated by APLP2 [3] | CTFs of APLP1 upon DAPT treatment ([4]; HEK293 cells transfected with APLP1, with or without BACE 1, DAPT (2 mM [sic]), FIG. 4) | CTFs of APLP2 upon DAPT treatment ([4]; HEK293 cells transfected with APLP2, with or without BACE 1, DAPT (2 mM [sic]), FIG. 4) | CTFs of APP upon DAPT treatment ([4]; HEK293 cells transfected with APP, with or without BACE 1, DAPT added 6 hrs before harvesting, tricine gel immunoblot) | CTFs of neurexin 1β/APP hybrid upon DAPT treatment ([4]; HEK293 cells transfected with Nrx1β/APP hybrid, with or without BACE 1, FIG. 6B) | CTFs of neurexin 1β upon DAPT treatment ([4]; HEK293 cells transfected with neurexin 1β, DAPT (2 mM [sic]), said to be most likely an artifact, FIG. 4) | binding to the central APP domain (CAD) of APP, APLP1 and APLP2 [5] | effect of binding on cleavage at the β-secretase cleavage sites [6] |
| --- | --- | --- | --- | --- | --- | --- | --- | --- | --- | --- |
| C[C@H](NC(=O)Cc1cc(F)cc(F)c1)C(=O)N[C@H](C(=O)OC(C)(C)C)c1ccccc1 [DAPT] | Significant inhibition | Significant inhibition | Significant inhibition | very abundant | very abundant | very abundant; also recorded: massive accumulation of CTFs | massive accumulation of CTFs | CTFs were also observed | – | – |
| B1 | – | – | – | – | – | – | – | – | binds | inhibits the cleavage |
